Reference: US7138361B2, “Herbicidal heterocycles” (E. I. du Pont de Nemours and Company, priority 2000, dated 2006)

How the values were obtained:
Assay type in all cases: in vivo
Nightshade [1] = experiment: Test C preemergence; conditions: Rate 500 g/ha, visual evaluation after 12 to 14 days
[2] = system: smallflower flatsedge (Cyperus difformis); experiment: Test C flooded paddy test; conditions: for Plant response rating, Flatsedge: scale 0 to 100 (0 no effect, 100 complete control)
Outline: (§1)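 Ratings come from visual comparison with control plants after 12 to 14 days in the greenhouse. Each species was at the 2-leaf stage when the flooded paddy was treated. Scores run from 0, meaning no effect, to 100, meaning complete control.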

[3] = system: duck salad (Heteranthera limosa); experiment: Test C flooded paddy test; conditions: for Plant response rating, Ducksalad: scale 0 to 100 (0 no effect, 100 complete control)
Outline: as §1

[4] = system: barnyardgrass (Echinochloa crus-galli); experiment: Test C flooded paddy test; conditions: for Plant response rating, Barnyardgrass: scale 0 to 100 (0 no effect, 100 complete control)
Outline: as §1

rice (Oryza saliva) = experiment: Test C flooded paddy test; conditions: for Plant response rating, Rice: scale 0 to 100 (0 no effect, 100 complete control)
Outline: as §1

[5] = system: morningglory (Ipomoea hederacea); experiment: Test C preemergence
Outline: (§2)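 Test chemicals, formulated in a non-phytotoxic solvent mixture with surfactant, were applied preemergence to planted seeds or postemergence to plants 2 to 18 cm tall (1- to 4-leaf stage). After 12 to 14 days in a greenhouse, injury was visually rated against untreated controls on a 0–100 scale.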

[6] = system: johnsongrass (Sorghum halepense); experiment: Test C preemergence
Outline: as §2

[7] = system: common ragweed (Ambrosia elatior); experiment: Test C preemergence
Outline: as §2

Sunflower = experiment: Test C preemergence; conditions: Rate 125 g/ha; scale 0 to 100, 0 no effect, 100 complete control
[8] = system: goosegrass (Eleusine indica); experiment: Test C preemergence
Outline: as §2

soybean (Glycine max) = experiment: Test C preemergence
Outline: as §2

[9] = system: pigweed (Amaranthus retroflexus); experiment: Test C preemergence
Outline: as §2

[10] = system: bermudagrass (Cynodon dactylon); experiment: Test C preemergence
Outline: as §2

[11] = system: giant foxtail (Setaria faberii); experiment: Test C preemergence
Outline: as §2

[12] = system: crabgrass (Digitaria sanguinalis); experiment: Test C preemergence
Outline: as §2

[13] = system: velvetleaf (Abutilon theophrasti); experiment: Test C preemergence
Outline: as §2

kochia (Kochia scoparia) = experiment: Test C preemergence
Outline: as §2

[14] = system: yellow nutsedge (Cyperus esculentus); experiment: Test C preemergence
Outline: as §2

[15] = system: Surinam grass (Brachiaria decumbens); experiment: Test C preemergence
Outline: as §2

Nightshade [16] = experiment: Test C preemergence
[17] = system: woolly cupgrass (Eriochloa villosa); experiment: Test C preemergence
Outline: as §2

corn (Zea mays) = experiment: Test C preemergence
Outline: as §2

[18] = system: cocklebur (Xanthium strumarium); experiment: Test C preemergence; conditions: for Plant response rating, Cocklebur: scale 0 to 100, 0 no effect, 100 complete control
Outline: as §2

[19] = Flooded Paddy, Rate 500 g/ha, scale 0 to 100, 0 no effect, 100 complete control
[20] = flooded paddy test, Rate 125 g/ha
[21] = flooded paddy test, Rate 250 g/ha
[22] = flooded paddy test, Rate 62 g/ha, visually evaluated after 12 to 14 days, 0 = no effect, 100 = complete control
[23] = Rate 125 g/ha, scale 0 to 100, 0 no effect, 100 complete control
[24] = preemergence, Rate 62 g/ha, scale 0 to 100
[25] = preemergence, Rate 500 g/ha, visual evaluation after 12 to 14 days
[26] = preemergence, Rate 250 g/ha, scale 0 to 100, 0 no effect, 100 complete control

CCC(CC)c1ccn(C2CCN(c3ccc(Br)c(OC)c3)C2=O)n1 (stereo not drawn) [Compound 143]
Plant response rating (0 to 100), Nightshade (Nightshade [1]): 100 | Flatsedge plant response rating [2, 19]: 100 | Plant response rating, Flatsedge [2, 20]: 95 | Plant response rating, Flatsedge [2, 21]: 95 | Plant response rating (scale 0 to 100), Flatsedge [2, 22]: 90 | Ducksalad plant response rating [3, 19]: 100 | Plant response rating, Ducksalad [3, 20]: 75 | Plant response rating, Ducksalad [3, 21]: 95 | Plant response rating (scale 0 to 100), Ducksalad [3, 22]: 45 | Barnyardgrass plant response rating [4, 19]: 100 | Plant response rating, Barnyardgrass [4, 20]: 100 | Plant response rating, Barnyardgrass [4, 21]: 100 | Plant response rating (scale 0 to 100), Barnyardgrass [4, 22]: 55 | Rice plant response rating (rice (Oryza saliva); [19]): 60 | Plant response rating, Rice (rice (Oryza saliva); [20]): 30 | Plant response rating, Rice (rice (Oryza saliva); [21]): 50 | Plant response rating (scale 0 to 100), Rice (rice (Oryza saliva); [22]): 0 | Plant response rating, Morningglory [5, 23]: 100 | Plant response rating, Morningglory [5, 24]: 30 | Plant response rating (0 to 100), Morningglory [5, 25]: 100 | Plant response rating, Morningglory [5, 26]: 100 | Plant response rating, Johnsongrass [6, 23]: 60 | Plant response rating, Johnsongrass [6, 24]: 0 | Plant response rating (0 to 100), Johnsongrass [6, 25]: 90 | Plant response rating, Johnsongrass [6, 26]: 90 | Plant response rating, Ragweed, Common [7, 23]: 100 | Plant response rating, Ragweed, Common [7, 24]: 90 | Plant response rating (0 to 100), Ragweed, Common [7, 25]: 100 | Plant response rating, Ragweed, Common [7, 26]: 100 | Plant response rating, Sunflower (Sunflower): 80 | Plant response rating, Goosegrass [8, 23]: 100 | Plant response rating, Goosegrass [8, 24]: 100 | Plant response rating (0 to 100), Goosegrass [8, 25]: 100 | Plant response rating, Goosegrass [8, 26]: 100 | Plant response rating, Soybean (soybean (Glycine max); [23]): 80 | Plant response rating, Soybean (soybean (Glycine max); [24]): 70 | Plant response rating (0 to 100), Soybean (soybean (Glycine max); [25]): 100 | Plant response rating, Soybean (soybean (Glycine max); [26]): 80 | Plant response rating, Pigweed [9, 23]: 100 | Plant response rating, Pigweed [9, 24]: 100 | Plant response rating (0 to 100), Pigweed [9, 25]: 100 | Plant response rating, Pigweed [9, 26]: 100 | Plant response rating, Bermudagrass [10, 23]: 100 | Plant response rating, Bermudagrass [10, 24]: 100 | Plant response rating (0 to 100 where 0 is no effect and 100 is complete control), Bermudagrass [10, 25]: 100 | Plant response rating, Bermudagrass [10, 26]: 100 | Plant response rating, Foxtail, Giant [11, 23]: 100 | Plant response rating, Foxtail, Giant [11, 24]: 100 | Plant response rating (0 to 100), Foxtail, Giant [11, 25]: 100 | Plant response rating, Foxtail, Giant [11, 26]: 100 | Plant response rating, Crabgrass [12, 23]: 100 | Plant response rating, Crabgrass [12, 24]: 100 | Plant response rating (0 to 100), Crabgrass [12, 25]: 100 | Plant response rating, Crabgrass [12, 26]: 100 | Plant response rating, Velvetleaf [13, 23]: 70 | Plant response rating, Velvetleaf [13, 24]: 70 | Plant response rating (0 to 100), Velvetleaf [13, 25]: 100 | Plant response rating, Velvetleaf [13, 26]: 90 | Plant response rating, Kochia (kochia (Kochia scoparia); [23]): 100 | Plant response rating, Kochia (kochia (Kochia scoparia); [24]): 100 | Plant response rating (0 to 100), Kochia (kochia (Kochia scoparia); [25]): 100 | Plant response rating, Kochia (kochia (Kochia scoparia); [26]): 100 | Plant response rating, Nutsedge [14, 23]: 0 | Plant response rating, Nutsedge [14, 24]: 0 | Plant response rating (0 to 100), Nutsedge [14, 25]: 0 | Plant response rating, Nutsedge [14, 26]: 0 | Plant response rating, Surinam grass [15, 23]: 0 | Plant response rating, Surinam grass [15, 24]: 0 | Plant response rating (0 to 100), Surinam grass [15, 25]: 70 | Plant response rating, Surinam grass [15, 26]: 70 | Plant response rating, Nightshade (Nightshade [16]; Rate 62 g/ha, scale 0 to 100): 100 | Plant response rating, Nightshade (Nightshade [16]; [23]): 100 | Plant response rating, Nightshade (Nightshade [16]; Rate 250 g/ha, scale 0 to 100, 0 no effect, 100 complete control): 100 | Plant response rating, Cupgrass, Woolly [17, 23]: 100 | Plant response rating, Cupgrass, Woolly [17, 24]: 90 | Plant response rating (0 to 100), Cupgrass, Woolly [17, 25]: 100 | Plant response rating, Cupgrass, Woolly [17, 26]: 100 | Plant response rating, Corn (corn (Zea mays); [23]): 30 | Plant response rating, Corn (corn (Zea mays); [24]): 30 | Plant response rating (0 to 100), Corn (corn (Zea mays); [25]): 30 | Plant response rating, Corn (corn (Zea mays); [26]): 30 | Plant response rating, Cocklebur ([18]; Rate 125 g/ha): 50 | Plant response rating (0 to 100), Cocklebur [18, 25]: 55 | Plant response rating, Cocklebur ([18]; preemergence, Rate 250 g/ha): 50
